Measurements published in US7897340B2, “Use of tumor susceptibilty gene 101 (TSG 101) as a prognostic and diagnostic marker” (The Board of Regents of the University of Texas System, priority 2006, dated 2011).
“Also recorded” adds a separate entry of the source.

Key:
SKOV-3 cells [1] = assay: Cell growth by counting; format: cell-based, human
Procedure: FIGS. 11A-F show association of suppression of TSG101 expression with cell cycle arrest and growth inhibition. In FIG. 11A, SKOV-3 cells were transfected with TSG101 and control siRNAs and RNA and protein were isolated 48 hours post transfection. Levels of mRNA were determined by semiquantitative RT-PCR and protein levels were determined by immunoblotting, respectively. Similar results were obtained from more than 4 independent experiments. In FIG. 11B, TSG101 or control siRNA transfected cells were plated at 2.5×10^4 cells/well in 6 well plates and cell growth was determined by counting over successive days. Each data point represents the average of 3 wells. Control and TSG101 knockdown SKOV-3 cells were stained with propidium iodide and analyzed by FACS on day 4 (FIG. 11C) or day 6 (FIG. 11D) following transfection. Sub G1 cells are calculated as a supplemental population. In FIG. 11E, SKOV-3 cell lysates were obtained 6 days following transfection with control or TSG101 siRNA. Caspase activity was determined using the fluorogenic substrate DEVD-AFC. In FIG. 11F, control and TSG101 knockdown SKOV-3 cells on day 5 following siRNA transfection were stained using Hoechst 22658 and Nuclear condensation was observed on a fluorescent microscope. Cells with condensed/fragmented DNA were quantified from at least 8 images, and represented as a percentage of the total number of cells. […]

SKOV-3 cells [2] = assay: Flow cytometry cell cycle analysis (propidium iodide); format: cell-based, human
Procedure: SKOV-3 cells transfected with either TSG101 or control siRNA were grown and harvested 4 and 6 days after transfection. 1×10^6 cells were trypsinized from 10 cm plates and transferred to FACS tubes, washed twice with PBS, and then fixed with 70% ethanol for 2 h on ice. Ethanol was removed by centrifugation and cells were rehydrated in PBS at room temperature for 5 min. Cells were centrifuged to remove PBS and stained with 1 ml of propidium iodide staining solution (0.1% Triton X-100, 0.2 mg/ml RNAase A, 0.05 mg/ml propidium iodide, prepared fresh) for 1 h at room temperature. Cellular DNA content was then determined on a Becton-Dickinson FACS-Scan apparatus.

p21 promoter = p21 promoter luciferase reporter assay in SKOV-3 cells; format: cell-based, human
Excerpt: To investigate the mechanism by which TSG101 silencing induced the accumulation of p21 mRNA, a plasmid construct, p21P, with a luciferase reporter gene under the transcriptional control of the p21 promoter was co-transfected into the SKOV-3 cells either with TSG101 specific or control siRNA. […] Since SKOV-3 cells are p53-null, this apparent TSG101 silencing-mediated transcriptional activation of p21 was most likely p53-independent.
To further confirm this observation, the luciferase reporter activity was monitored using a deletion p21 reporter construct, p21PΔ1.1, which contained a 1.1 kb deletion that removed the consensus p53-responsive element from the 5′ region of the 2.4 kb p21 promoter 27. […] Since TSG101 contained a putative DNA-binding domain and could act as a general transcriptional suppressor 2, it was hypothesized that TSG101, acting as a transcriptional corepressor, suppressed the transactional activation of p21 by binding to the p21 promoter. Consequently, suppression of TSG101 by siRNA led to the transcriptional activation of p21.

CITED2 = CITED2 protein by immunoblotting in SKOV-3 cells; format: cell-based, human; conditions: SKOV-3, immunoblotting
Excerpt: Antigen-antibody complexes were detected by enhanced chemiluminescence (Pierce).
A siRNA duplex specific for TSG101 (targeting TSG101 coding sequence 413-433) and a scrambled random control siRNA with matching GC content were obtained from Dharmacon. This specific TSG101 siRNA duplex (sense: CCUCCAGUCUUCUCUCGUCdTdT (SEQ ID NO: 7) and antisense: dTd[…] (SEQ ID NO: 8) have been successfully applied to suppress the expression of endogenous TSG101 in several high quality studies (Amit et al., 2004; Garrus et al., 2001; Hewitt et al., 2002; Ismaili et al., 2005). Transfection of the siRNAs was according to the manufacturer's instructions using Lipofectamine 2000 (Invitrogen).

caspase 3 = assay: Caspase activity assay; format: cell-based, human; conditions: SKOV-3 lysates, 6 days following transfection
Procedure: SKOV-3 cells transfected with either control or TSG101 siRNA were grown in 10 cm plates to 70-80% confluence, then harvested by trypsinization, washed twice in PBS and once in wash buffer (100 mM HEPES pH 7.4, 0.5 mM EDTA, 1 mM DTT, 0.1 mM PMSF, 2 μg/ml leupeptin, 2 μg/ml pepstatin). The cells were lysed on ice for 30 min with frequent vortexing in 150 μl of lysis buffer (wash buffer plus 1% Triton-X100). Cell debris was removed by centrifugation at 16,000 g for 20 min at 4° C. Lysate protein concentration was determined by Bradford assay (Bio-Rad). Caspase 3 activity was measured using fluorogenic substrates […] that is specific for caspase 3. Release of free AFC was monitored using a Fluoroskan fluorescence microplate reader with excitation and emission set to 405 and 510 nm, correspondingly.

SKOV-3 cells [3] = assay: In vivo tumor formation assay in nude mice; parameters: species or system Balb/c athymic nude mice; conditions: siRNA-transfected SKOV-3 cells injected s.c. into flanks of nude mice, four mice, vs control siRNA cells
Procedure: SKOV-3 cells were trypsinized 3 days following transfection with either Control or TSG101 siRNA, and subsequently washed and resuspended in phosphate-buffered saline at 5×10^6 cells/ml. 200 μl (1×10^6 cells) of control or TSG101 transfected SKOV-3 cells were injected s.c. into the right and left flanks (respectively) of 4-6 week old Balb/c athymic nude mice (Jackson Laboratory, Bar Harbor, Me.). Mice were examined every 5 days until visible tumors appeared. Subsequently, tumor volume measurements were taken every 3-5 days, and mice were sacrificed 6 weeks after initial injections, and a final measurement of tumor volume was taken.
Further, in vivo tumor formation assay in nude mice was performed to determine if TSG101 knockdown affected the tumorigenicity of SKOV-3 cells. Seventy-two hours post transfection, SKOV-3 cells transfected either with TSG101 or control siRNA duplex were pair-wise injected subcutaneously into the left or right flanks, respectively, of the same BALB/c athymic nude mouse. Tumor growth was monitored for 6 weeks, at which time the tumors were harvested and tumor volume was measured. […] Due to the transient nature of the siRNA duplex, the actual effect of TSG101 gene silencing should be more prominent.

Q: How did the “cell number (cell growth)” value (SKOV-3 cells [1]; SKOV-3, counting over successive days, vs scrambled control siRNA) turn out when “TSG101 siRNA: siRNA duplex from Dharmacon targeting TSG101 coding sequence 413-433, SEQ ID NO: 7 and 8 (chain 1 CCUCCAGUCUUCUCUCGUCTT; chain 2 TTGGAGGUCAGAAGAGAGCAG; chemistry not fully specified; one strand is listed 3' to 5')” was run?
A: Its value is “decrease dramatically in number beginning 5 days post transfection”.

Q: And the “rate of cell growth, initial observations” value (SKOV-3 cells [1]; SKOV-3, up to 72 h posttransfection)?
A: Its value is “no significant cellular effects on cell growth”.

Q: And the “cellular DNA content vs control siRNA” value (SKOV-3 cells [2]; SKOV-3, day 4)?
A: Its value is “very similar”.

Q: And the “sub-G1 apoptotic cell debris” value (SKOV-3 cells [2]; SKOV-3, day 4)?
A: Its value is “not seen”.

Q: What about the G1/G0 phase cells (SKOV-3 cells [2]; SKOV-3, day 6) of the same substance?
A: Its G1/G0 phase cells is “decrease”.

Q: What about the “number of cells in G2/M phase” value (SKOV-3 cells [2]; SKOV-3, day 6) of the same substance?
A: The value was “significant increase”.

Q: What about the “sub-G1 apoptotic cell debris” value (SKOV-3 cells [2]; SKOV-3, day 6) of the same substance?
A: Its value is “significant population”.

Q: What about the “induction of p21 (luciferase reporter)” value (p21 promoter; SKOV-3, full-length p21 promoter construct p21P) of the same substance?
A: Its value is 6 fold.

Q: What about the “luciferase activity (p21 promoter reporter)” value (p21 promoter; SKOV-3, p21P construct co-transfected with siRNA, vs control siRNA) of the same substance?
A: The value was “significantly increased; also recorded: potentiates p21 transcription”.

Q: And the “induction of p21 (luciferase reporter)” value (p21 promoter; SKOV-3, p53-deletion construct p21PΔ1.1)?
A: The value was 6 fold.

Q: And the “cellular levels of CITED2 protein” value (CITED2)?
A: The value was “significantly reduced”.

Q: What about the “caspase 3 activity” value (caspase 3) of the same substance?
A: Its value is “apparent increases”.

Q: And the tumor volume (SKOV-3 cells [3])?
A: The tumor volume was “significantly smaller; also recorded: reduced tumor growth”.
